Measured values from US20110160121A1, “UNACYLATED GHRELIN AND ANALOGS AS THERAPEUTIC AGENTS FOR VASCULAR REMODELING IN DIABETIC PATIENTS AND TREATMENT OF CARDIOVASCULAR DISEASE” (ALIZE PHARMA SAS, priority 2008, published 2011).
Values joined by “and” are separate entries in the source; they are usually repeats but may differ in a detail not shown here. Equal values may be shown once. Each block holds one molecule with its values, some of them ahead of it. *1 amine or outer side, *2 acyl side, *3 side chain or, on linkers, in order; H or OH if unused. Where no end group is shown, it is not given here. [ ]: non-standard residue; d: D form. The star is where a group is joined. 125I‑Tyr = O=C([C@H](Cc1ccc(O[*:3])c([125I])c1)N[*:1])[*:2]; Octanoyl = CCCCCCCC(=O)*; 125I = [125I]*

Tests used:
[1] = tested on: CAC; test: Detection of ROS in CAC (DCF-DA assay, FACS); format: cell-based, human; settings: for level of ROS production in AGE-cultured cells: AGE-cultured CAC, FIG. 1C, 1F; for baseline level of ROS production: CAC, compared to untreated cells, FIG. 1B, 1E
Experimental: First, cell-cycle progression in response to UAG and AG was evaluated. […] To investigate whether this effect relies on inhibition of baseline ROS production, DCF-DA assay was performed. […] H2O2 was used as positive control. AGE-mediated damage signals mainly rely on ROS production (Ref. 29). […] Detection of ROS—DCF-DA (0.5 μM final concentration) was added to CAC in the indicated culture conditions. At the indicated times, the cells were subjected to FACS analysis and processed as previously described (Ref. 22). H2O2 was used as positive control.

[2] = tested on: CAC membranes; test: Competition binding with [125I-Tyr4]-UAG on CAC membranes; parameters: species or system human
Text: The specific binding of [^125I-Tyr^4]-UAG (calculated as difference between binding in the absence, control, and in the presence of UAG) represented about 75% of the control value (P<0.001) and was detected either on fresh (0.25 and 0.26 fmol) or frozen-thawed (0.20 and 0.33 fmol) CAC membranes from two different cell preparations.

[3] = tested on: cardiomyocytes; settings: Ref. 8; cited from earlier work
[4] = tested on: human umbilical vein endothelial cells (HUVECs); settings: Ref. 5; cited from earlier work
[5] = tested on: CAC; test: CAC mobilization assay in healthy subjects and diabetic patients; format: in vivo, human; settings: diabetic patients compared to normal subjects, treated for 6 hours; FIG. 3B
Experimental: This observation led to investigate the effect of UAG treatment on BM CAC mobilization. To this end, normal subject and diabetic patients were treated with UAG or saline for 6 hours. After treatment, CAC were recovered from 4 control subjects and 4 diabetic patients, analyzed by FACS analysis and counted. […] Black lines refer to preimmune IgG used as negative control and grey lines refer to surface marker expression. Similar results were obtained when CAC from untreated diabetic patients or untreated or treated healthy subjects were analyzed (data not shown).
All the subjects underwent the following testing session: • UAG (3.0 μg/kg/h iv. as infusion for 12 h from 0 to 12 hours); • isotonic saline (infusion from 0 to 12 hours).
Mobilization assay—CAC recovered from healthy subjects and diabetic patients, treated with UAG or saline for 6 h and 12 h, were evaluated. Total number of MNC was counted by 3 independent investigators. The percentage of CAC was calculated by comparing CAC obtained from diabetic patients and healthy donors, treated for 6 h and 12 h with UAG, AG or saline, to CAC recovered at time 0.

[6] = tested on: human arteries; settings: Ref. 35; cited from earlier work
[7] = tested on: CAC; test: Expansion (S phase) of CAC recovered from treated patients, cultured with IL-3; format: in vivo, human; settings: cells recovered from treated diabetic patients; FIG. 3C
Experimental: To confirm their vascular features, the cells recovered from patients and controls were cultured with IL-3; which is able to induce expansion and arterial morphogenesis of CD45^+ cells derived from both peripheral blood and BM (Ref. 28).
Flow Cytometry—To analyze CAC cell-cycle progression, cells recovered from diabetic, healthy subjects, NOD/SCID, ob/ob and wt mice, were cultured in EBM-2 supplemented with IL-3 (10 ng/ml), FACS analysis was performed as previously described (Ref. 20). Cell surface molecules were evaluated by flow cytometry as previously described (Ref. 24). Frequency of marker-positive cells is expressed as mean±standard deviation (SD).

[8] = tested on: CAC; test: CAC cell-cycle progression (percentage of cells in S phase, FACS); format: cell-based, human; settings: cultured CAC; effect still evident after 7 days of culture; FIG. 1A
Experimental: First, cell-cycle progression in response to UAG and AG was evaluated. […] To investigate whether this effect relies on inhibition of baseline ROS production, DCF-DA assay was performed. […] H2O2 was used as positive control. AGE-mediated damage signals mainly rely on ROS production (Ref. 29). […] Isolation and Culture of CAC from Peripheral Blood Mononuclear Cells—Peripheral-blood mononuclear cells (PB-MNC) isolated by Fycoll Histopaque 1077 (Sigma) were resuspended in 20% FBS 199 Medium and plated on fibronectin-coated dishes (Biocoat, Becton Dickinson Labware) as described by Hill et al. (Ref. 19). Human UAG studies were performed on CAC recovered from normal donors and diabetic patients. The purity of sorted cells was assessed by FACS analysis (Ref. 20). For experiments, the isolated CAC were cultured under 5% CO2 at 37° C. for 4 days on 20 μg/ml fibronectin-coated dishes in EGM-2 medium containing 10% FBS, hydrocortisone, human Fibroblast Growth Factor, Vascular Endothelial Growth Factor, Insulin Growth Factor 1, ascorbic acid, human Epidermal Growth Factor, gentamicin and amphotericin-B (Cambrex, Walkersville, Md., USA) alone or in combination with 1 μM UAG and 1.2 mg/ml AGE. […] Cell surface molecules were evaluated by flow cytometry as previously described (Ref. 24). Frequency of marker-positive cells is expressed as mean±standard deviation (SD).

[9] = tested on: human microvascular endothelial cells (HMVECs); settings: exogenous AG, Ref. 4; cited from earlier work
[10] = molecular target: specific binding sites for UAG on CAC membranes; test: saturation binding on CAC membranes
[11] = molecular target: specific binding sites for UAG on CAC membranes; test: saturation binding on CAC membranes, Scatchard analysis
[12] = molecular target: specific binding sites for UAG on CAC membranes; test: radioligand binding to CAC membranes; difference between binding without and with 100 nM unlabelled UAG
[13] = molecular target: specific binding sites for UAG on CAC membranes; test: radioligand binding, frozen-thawed CAC membranes, two cell preparations
[14] = molecular target: specific binding sites for UAG on CAC membranes; test: radioligand binding, fresh CAC membranes, two cell preparations

inhibition of binding of [125I-Tyr4]-UAG to CAC membranes ([2]; 100 nM competitor, 0.25 nM radioligand, FIG. 5A): inhibited
Molecule: Ser-Pro-Glu-His-Gln-Arg-Val-Gln (SPEHQRVQ; not fully specified (C-terminus); printed as Ser-Pro-Glu-His-Gln-Arg-Val-Gln; listed as Homo sapiens) [UAG (6-13)]
level of ROS production in AGE-cultured cells [1]: the level of ROS production in AGE-cultured cells was reduced | baseline level of ROS production [1]: reduces the baseline level of ROS production

Molecule: AG: 28 amino acid peptide with an n-octanoyl modification on the Ser3 residue; endogenous ligand of GHSR (GSS(Octanoyl)FLSPEHQRVQQRKESKKPPAKLQPR) [reference compound]
inhibition of experimentally-induced cell death [3]: inhibit experimentally-induced cell death | basal and TNF-alpha-induced chemotactic cytokine production and mononuclear cell adhesion [4]: inhibit basal and TNF-α-induced chemotactic cytokine production and mononuclear cell adhesion | number of recovered cells (CAC) [5]: No statistical differences were detected | vasodilator action [6]: have vasodilator actions in human arteries | cell expansion (cells in S phase) with IL-3 [7]: not from AG-treated diabetic patients, underwent cell expansion | percentage of cells in S phase [8]: not AG, was able to induce a significant increase | level of ROS production in AGE-cultured cells [1]: no effects could be detected | intracellular ROS production in diabetic-recovered cells ([1]; CAC isolated from type 2 diabetic patients, treated in vitro, FIG. 1D): not AG, reduced intracellular ROS production | baseline level of ROS production [1]: A protective effect failed to be detected | cell proliferation, migration, in vitro angiogenesis and ERK2 phosphorylation [9]: significantly increased cell proliferation, migration, in vitro angiogenesis and ERK2 phosphorylation

specific binding of [125I-Tyr4]-UAG ([2]; difference between binding in the absence and in the presence of 100 nM UAG, P<0.001): about 75 % of the control value | specific binding of [125I-Tyr4]-UAG ([2]; fresh CAC membranes, two different cell preparations): 0.25 fmol and 0.26 fmol | specific binding of [125I-Tyr4]-UAG ([2]; frozen-thawed CAC membranes, two different cell preparations): 0.20 fmol and 0.33 fmol
Molecule: [^125I-Tyr^4]-UAG: radioligand used for binding to CAC membranes (GSS[125I‑Tyr]LSPEHQRVQQRKESKKPPAKLQPR)

concentration at maximum specific binding [10]: 2 nM | Bmax (fmol/mg membrane protein) [11]: 10.7 | Kd [11]: 480 pM | specific binding (% of control value) [12]: 75% | specific binding [13]: 0.2 fmol and 0.33 fmol | specific binding [14]: 0.25 fmol and 0.26 fmol
Molecule: GSSY(125I)LSPEHQRVQQRKESKKPPAKLQPR (ends and bridges not checked) [[125I-Tyr4]-UAG]
